Source: patent US20160000127A1, “MANGO FLAVOR COMPOSITIONS” (MARS, INCORPORATED, priority 2013, published 2016)

Assays:
[1] = Aroma extract dilution analysis (AEDA) by GC-O of aroma isolates of fresh mango cultivars; details: GC-O on FFAP column; for FD factor WA: White Alfonso (WA) mango cultivar aroma isolate; for FD factor H: Haden (H) mango cultivar aroma isolate, highest dilution at which the aroma was detectable; for FD factor RS: Royal Special (RS) mango cultivar aroma isolate; for FD factor PS: Praya Sowoy (PS) mango cultivar aroma isolate; for FD factor M: Malindi (M) mango cultivar aroma isolate
Excerpt: The presently disclosed subject matter was developed in part by analytical analyses on regional mangos performed to avoid overlooking any key compounds that can greatly influence the natural flavorings. To overcome the lack of distinct cultivar flavors available for true-fruit mango tastes, the presently disclosed subject matter has created a flavor system using aroma extract dilution analysis (AEDA) on fresh fruit from various mango cultivars. In addition, sensory experiments with the flavor compositions of the formulas given together with omission experiments were used to determine the relative importance of some of the components in the manufactured flavorings. A Flavor Dilution (FD)-chromatogram of the odorants was obtained for the odorants perceived in aroma extracts of various mango samples. FD-factors reflect the highest dilution at which a substance is still smelled and these are typically determined by AEDA.
AEDA is known as a powerful screening method used for the detection of aroma compounds, which combines a quantitative gas chromatography olfactometry (GCO) procedure for determining the potency of odorants in food. Using FD values from the AEDA tests, a base flavor system using compounds found in all the cultivars was created. Next, cultivars were characterized by their differences and cultivar components were designed by combining compounds identified as contributing to the distinct differences. The base and cultivar flavors were confirmed by creating a flavor system and testing the flavor system in a model confectionery product.
Volatile compounds are extracted from the fruit samples. For example, compounds are extracted with diethyl ether and an aroma isolate was prepared via high vacuum distillation. The aroma isolate was then serially diluted to a range of dilutions from 2 to 1,024. The various dilutions are then analyzed by GCO.
The FD factor data depict the highest dilution at which an odorant is still detectable by GCO. FD factors are relative measurements. The measurement is the ratio of the initial concentration to its most dilute extraction. Such measurements are proportional to a compounds odor activity value (OAV), which is the ratio of the concentration to an odor threshold in the air.
Fresh ripe mangos were peeled, the seed was removed, and the flesh was cut into small 4 cm^3 sections. The sections were immediately frozen in liquid nitrogen, ground into a fine powder with a laboratory mill and sequentially extracted with freshly distilled diethyl ether (1×100 mL; 1×50 mL) on an autoshaker at room temperature for 10 minutes. After centrifugation (5000 rpm for 5 minutes), the supernatants were combined and the residue was discarded. The organic layer was then separated in a separatory funnel and the aqueous layer was discarded. The ether extract (total volume: 150 mL) was then subjected to high-vacuum distillation using the SAFE technique (Engel, W.; Bahr, W.; Schieberle, P., Solvent assisted flavour evaporation—a new and versatile technique for the careful and direct isolation of aroma compounds from complex food matrices. European Food Research and Technology 1999, 209, 237-241.). The distillation apparatus was thermostated at 40° C. and kept under high vacuum (10-5 mbar). The sample was dropped into the extraction flask of the apparatus over 40 minutes, after which the extraction was continued for an additional 30 minutes. At the completion of the extraction time, the vacuum was broken and the collection flask was removed. The sample was thawed at room temperature and dried over anhydrous sodium sulfate. The sample was then concentrated to approximately 2 ml using a Vigreux column (50×1 cm) held at 50° C. and finally concentrated (total volume: 200 uL) under a gentle stream of nitrogen. The aroma quality of the isolate was then evaluated to ensure that it closely matched the odor quality of the fresh ripe mango flesh.
An Agilent 6890 series GC system was used for GC-O analysis. […]

[2] = cited from earlier work; for recog. ppb: Table 21, odor thresholds from literature (footnotes a-g); for recognition (ppb) / detection (ppb): Table 8, representative threshold level; for recognition (ppb): point at which a specific taste is recognizable; for detection (ppb): point at which a taste is detected compared to a control such as water
[3] = Odor threshold levels (recognition and detection) of odorants; details: Tables 1-5, relative to the other odorants of the same group
Excerpt: As used herein, “threshold level” relates to an amount at which a flavor is detected or recognized. A detection level is the point at which a taste is detected as compared to a control such as water. A recognition level is the point at which a specific taste is recognizable.
Additional measurements can be used as a proxy for potency, whereby similar calculations can be configured to prepare a base blend. For example, threshold levels can be used to determine a reference point for potency. For example, threshold levels include detection levels, where a taste is detected in comparison to a control, for example water. Threshold levels also include recognition levels whereby a taste is specifically recognized, which is generally a higher level than a mere detection level. The threshold levels achieve an equivalent organoleptic effect whereby a specific target is either detectable or recognized.
By way of example, the following table provides representative threshold levels in ppb for both detection and recognition levels.
The specific odorant listed has been categorized one of the highest potency odorants within the noted class. As such, the highest potency relates to the littlest amount to be used in the composition. Therefore, relative potencies are then computed by orders of magnitude as detailed in the above Table. Additional threshold levels are discussed below in Example 4.
The following Example provides odor thresholds of weakest and strongest odorants with the different aroma groups, as well as alternative compounds for the first tier of odorants. These odorants are representative in defining the unique sensory attributes of the aroma isolates of the different cultivars.

Row | SMILES | FD factor WA [1] | recog. ppb [2] | FD factor H [1] | FD factor PS [1] | other results
1 | C=C/C(C)=C/CC=C(C)C [β-(E)-ocimene] | 128 | 34 ppb | – | – | –
2 | OCCc1ccccc1 [2-phenylethanol] | – | – | 128 | – | –
3 | CCCCCC1CCCC(=O)O1 (stereo not drawn) [δ-decalactone] | – | 51 ppb | – | – | –
4 | COC1=C(C)OC(C)C1=O (stereo not drawn) [4-methoxy-2,5-dimethyl-3(2H)-furanone] | – | 3400 ppb | – | – | FD factor RS [1]: 128
5 | CC1=C(O)C(=O)OC1C (stereo not drawn) [3-hydroxy-4,5-dimethyl-2(5H)-furanone] | – | 1.1 ppb | – | – | potency within odorant group (footnote *) [3]: *Most potent; recognition (ppb) [2]: 1.1 ppb; detection (ppb) [2]: 0.49 ppb
6 | CCCC(=O)O [butanoic acid] | – | 7700 ppb | – | 128 | –
7 | C=CC=CC=CCC=CCC [1,3,5,8-undecatetraene] | 128 | – | – | – | FD factor M [1]: 512; FD factor RS [1]: 512
8 | CCCCCC/C=C/C=O [(E)-2-nonenal] | – | 0.4 ppb | – | 128 | –
9 | C=C/C=C/C=C\CCCCC [1-(E,Z)-3,5-undecatriene] | 512 | 0.003 ppb | 512 | – | potency within odorant group (footnote *) [3]: *Most potent; recognition (ppb) [2]: 0.003 ppb
10 | CC/C=C/CC=O [(E)-3-hexenal] | – | 160 ppb | – | 512 | –
11 | CC(=O)CCC1=C(C)CCCC1(C)C [dihydro-β-ionone] | – | – | – | – | FD factor RS [1]: 128
12 | CC(=O)C1=NCCC1 [2-acetyl-1-pyrroline] | – | – | 512 | 128 | FD factor M [1]: 512
13 | CCOC(=O)CC(C)C [ethyl-3-methylbutanoate] | – | 0.11 ppb | 2048 | – | –
14 | CC/C=C\CC=O [(Z)-3-hexenal] | – | 0.21 ppb | – | 128 | –
15 | CC(=O)/C=C/C1=C(C)CCCC1(C)C [β-ionone] | 512 | 8.4 ppb | – | – | FD factor M [1]: 32; FD factor RS [1]: 512; recognition (ppb) [2]: 8.4 ppb; detection (ppb) [2]: 3.5 ppb
16 | CCOC(=O)C(C)CC (stereo not drawn) [ethyl-2-methybutanoate] | – | 0.063 ppb | 512 | – | potency within odorant group (footnote *) [3]: *Most potent; recognition (ppb) [2]: 0.063 ppb; detection (ppb) [2]: 0.013 ppb

Row | SMILES | FD factor WA [1] | recog. ppb [2] | FD factor H [1] | FD factor PS [1] | other results
17 | CC/C=C\CC/C=C/C=O [(E,Z)-2,6-nonadienal] | – | 0.0091 ppb | – | 128 | potency within odorant group (footnote *) [3]: *Most potent; recognition (ppb) [2]: 0.0091 ppb; detection (ppb) [2]: 0.0045 ppb
18 | CCCC1CCCC(=O)O1 (stereo not drawn) [δ-octalactone] | 128 | – | 512 | – | FD factor M [1]: 128
19 | C=C/C(C)=C\CC=C(C)C [β-(Z)-ocimene] | 512 | 34 ppb | – | – | –
20 | CSCCC=O [3-(methylthio)-propanal] | 32 | – | 512 | – | –
21 | CC(=O)CC(C)(C)S [4-mercapto-4-methyl-2-pentanone] | – | 0.0001 ppb | – | – | recognition (ppb) [2]: 0.0001 ppb
22 | CC1=C(O)C(=O)C(C)O1 (stereo not drawn) [4-hydroxy-2,5-dimethyl-3(2H)-furanone] | 2048 | 160 ppb | 2048 | 2048 | FD factor M [1]: 2048; FD factor RS [1]: 2048
23 | CCOC(=O)C(C)C [ethyl-2-methypropanoate] | – | 0.22 ppb | 512 | – | –
24 | CCCCCCC1CCC(=O)O1 (stereo not drawn) [γ-decalactone] | – | 2.6 ppb | – | – | –
25 | CC1=CCC(C(C)(C)S)CC1 (stereo not drawn) [1-p-menthene-8-thiol] | – | 0.0001 ppb | – | – | –
26 | CCCCCC(=O)C(C)C(C)=O (stereo not drawn) [3-methyl-2,4-nonandione] | – | – | – | 128 | –
27 | C=CC(=C)CCC=C(C)C [myrcene] | 128 | 4.9 ppb | – | – | FD factor M [1]: 128; recognition (ppb) [2]: 4.9 ppb; detection (ppb) [2]: 1.2 ppb
28 | CCCCC1CCC(=O)O1 (stereo not drawn) [γ-octalactone] | 512 | 24 ppb | 512 | 128 | FD factor M [1]: 512; FD factor RS [1]: 512; potency within odorant group (footnote *) [3]: *Most potent; recognition (ppb) [2]: 24 ppb; detection (ppb) [2]: 6.5 ppb
29 | CCCC(=O)OCC [ethyl butanoate] | 128 | 2.4 ppb | 2048 | 128 | FD factor RS [1]: 32
30 | CC(=O)C(C)=O [2,3-butandione] | – | 2.9 ppb | – | 32 | –
31 | CCc1ncc(C)nc1CC [2,3-diethyl-5 methyl pyrazine] | – | – | – | – | FD factor RS [1]: 128
